Patent US9863937B2, “Fluorescent molecular rotors” (Agency for Science, Technology and Research, priority 2012, dated 2018)
“Also recorded” adds a separate entry of the source.

Tests used:
plasmid DNA = assay: Rotor fluorescence with plasmid DNA; assay type: binding; conditions: 100 uM rotor, 5 ug plasmid DNA
Experimental: 100 uM of Sybr green, Pyrene or CCVJ rotors were each added to either 5 ug plasmid DNA, 5 ug DNA with 500 mM NaOH, or PBS buffer only. Resulting fluorescence for each reaction mixture were then compared across the respective filters (Sybr 497/520, Pyrene 376/530, Julolidine 433/505).

[1] = target: p53 protein binding to DNA (Homo sapiens, UniProt P04637); assay: Fluorescence change of DNA-bound rotor on addition of p53 protein
Experimental: For the third set with DNA and p53, 1×PBS buffer and p53 6× binding buffer were first added to the wells. Subsequently, rotor was added and DNA was added. The combined solutions were mixed in each well and allowed to incubate in the dark at room temperature for half an hour before p53 was added. The combined solutions were then allowed to incubate in the dark at room temperature for another half an hour before data on fluorescence intensity was gathered.
6× binding buffer consists: 150 mM sodium phosphate buffer, 600 uM KCl, 24 mM DTT.
(§1) Measurements were taken using Greiner 384 black flat-clear-bottom for 18 uL mixtures, Corning 96 flat-black half-area for 80 uL and 100 uL mixtures, and Tecan Infinite M-1000 Spectrophotometer.

[2] = system: p53 binding sequence duplex DNA; assay: Rotor fluorescence with p53 binding sequence duplex DNA (intercalation); conditions: FIG. 7
Experimental: For the first set with DNA only, 1×PBS buffer and p53 6× binding buffer were first added to the wells. Subsequently, rotor was added. Lastly, DNA was added. The combined solutions were mixed in each well and allowed to incubate in the dark at room temperature for, half an hour before data on fluorescence intensity was gathered.
as §1

streptavidin = streptavidin (Streptomyces avidinii, UniProt P22629); assay: Fluorescence of rotor-biotin conjugate on addition of streptavidin; assay type: binding
Experimental: FIG. 4a depicts the emission spectra of a CCVJ molecular rotor bound to biotin with Streptavidin. […] 40 μM of rotor-biotin conjugate was incubated for 15 min with 50 μg of streptavidin. Fluorescence emission spectrum was measured using an excitation wavelength (λex) of 433 nm.

MDM2 = MDM2 (Homo sapiens, UniProt Q00987); conditions: unconjugated peptide, Table 9; ITC; read-out: Previously reported Kd value; cited from earlier work
Sequence of MDM2 (Q00987 whole entry): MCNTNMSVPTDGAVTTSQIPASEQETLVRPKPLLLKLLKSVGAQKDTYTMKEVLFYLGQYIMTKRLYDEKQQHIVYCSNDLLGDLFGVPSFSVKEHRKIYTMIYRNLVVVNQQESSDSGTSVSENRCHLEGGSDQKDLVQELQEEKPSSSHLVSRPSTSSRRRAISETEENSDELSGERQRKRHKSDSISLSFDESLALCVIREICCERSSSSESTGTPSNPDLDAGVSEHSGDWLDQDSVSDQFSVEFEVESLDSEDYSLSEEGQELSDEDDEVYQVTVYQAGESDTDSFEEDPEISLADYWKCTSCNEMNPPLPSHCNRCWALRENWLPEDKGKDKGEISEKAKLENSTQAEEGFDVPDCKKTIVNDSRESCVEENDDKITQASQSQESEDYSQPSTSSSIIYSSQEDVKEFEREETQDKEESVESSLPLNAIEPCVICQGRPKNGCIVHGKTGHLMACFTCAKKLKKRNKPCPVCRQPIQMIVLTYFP

Sequence of p53 protein binding to DNA (P04637 whole entry): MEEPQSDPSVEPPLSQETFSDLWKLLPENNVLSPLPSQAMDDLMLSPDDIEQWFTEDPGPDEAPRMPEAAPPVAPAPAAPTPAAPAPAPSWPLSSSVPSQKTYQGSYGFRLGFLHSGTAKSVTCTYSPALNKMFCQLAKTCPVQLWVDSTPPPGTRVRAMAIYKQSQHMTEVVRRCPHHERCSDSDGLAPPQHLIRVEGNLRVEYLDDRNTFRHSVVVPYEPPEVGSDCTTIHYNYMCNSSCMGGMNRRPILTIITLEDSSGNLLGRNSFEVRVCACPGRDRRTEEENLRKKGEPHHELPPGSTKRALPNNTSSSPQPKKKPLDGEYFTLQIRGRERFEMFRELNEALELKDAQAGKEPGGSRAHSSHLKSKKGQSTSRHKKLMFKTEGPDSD
Sequence of streptavidin (P22629 25-183, species assumed): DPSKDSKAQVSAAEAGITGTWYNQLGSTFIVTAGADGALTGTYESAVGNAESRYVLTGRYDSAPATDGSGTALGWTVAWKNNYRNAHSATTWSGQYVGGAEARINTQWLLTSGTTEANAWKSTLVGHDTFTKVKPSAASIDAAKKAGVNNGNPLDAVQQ

In the case of N#C/C(=C\c1cc2c3c(c1)CCCN3CCC2)C(=O)O [CCVJ, 9-(2-carboxy-2-cyanovinyl) julolidine], the “Fluorescence signal with plasmid DNA” value (plasmid DNA) is reported as “weak signal”.
For CN(C)c1ccc2cc3ccc(N(C)C)c(/C=C(\C#N)C(=O)O)c3nc2c1 [acridine-based rotor], the “Fluorescence change when p53 is added to DNA-bound rotor” value [1] was “decreased fluorescence signal; also recorded: fluorescence intensity dropped” and the “Rotor:DNA ratio at saturation of fluorescence intensity” value (from here on “Rotor:DNA ratio at saturation”) [2] was 0.5 × rotor.
With N#C/C(=C\c1cc2c3c(c1)CCCN3CCC2)C(=O)OCCNC(=O)CCCCC1SCC2NC(=O)NC21 (centres unmarked) [biotin-rotor probe] the “Fluorescence increase on addition of streptavidin” value (streptavidin; 40 μM conjugate, 50 μg streptavidin, 15 min) was 2 fold.
In the case of C[n+]1ccc(/C=C/c2ccc3c(c2)c2cc(/C=C/c4cc[n+](C)cc4)ccc2n3-c2ccccc2)cc1 [carbazole-based (2-arm) rotor, 4,4′-((1E,1′E)-(9-phenyl-9H-carbazole-3,6-diyl)bis(ethene-2,1-diyl))bis(1-methylpyridin-1-ium)], the “Fluorescence change when p53 is added to DNA-bound rotor” value [1] is reported as “turn-off effect” and the “Rotor:DNA ratio at saturation” value [2] is reported as 15 × rotor.
For C[n+]1ccc(/C=C/c2ccc(-n3c4ccc(/C=C/c5cc[n+](C)cc5)cc4c4cc(/C=C/c5cc[n+](C)cc5)ccc43)cc2)cc1 [carbazole-based (3-arm) rotor, 4,4′-((1E,1′E)-(9-(4-((E)-2-(1-methylpyridin-1-ium-4-yl)vinyl)phenyl)-9H-carbazole-3,6-diyl)bis(ethene-2,1-diyl))bis(1-methylpyridin-1-ium)], the “Rotor:DNA ratio at saturation” value [2] was 15 × rotor.
For N#C/C(=C\c1ccc2ccc3cccc4ccc1c2c34)C(=O)O [pyrene-based molecular rotor], the “Fluorescence change on binding to streptavidin” value (streptavidin; FIG. 4b) was “fluorescence increase”.
For C[n+]1c(/C=C2/C=CN(CCCN)c3ccccc32)sc2ccccc21 [thiazole-based rotor], the “Rotor:DNA ratio at saturation” value [2] was 15 × rotor.
For MPRFMDYWEGLNK [JP2], the Kd (MDM2) is listed as 240 ± 53.8 nM.
For MPRFMDYWEGLSK [JP1], the Kd (MDM2) is given as 18.8 ± 5.03 nM.
